US20240366539A1, “METHODS FOR TREATING AUTISM SPECTRUM DISORDERS” (INSTITUT NATIONAL DE LA SANTÉ ET DE LA RECHERCHE MÉDICALE, priority 2021, published 2024)

Tests used:
Assay type in all cases: in vivo, mouse
Shank3^Δex13-16−/− mice [1] = assay: Y-maze exploration; settings: Shank3Δex13-16−/− mice; chronic NaBr 250 mg/kg once daily
Description: (§1) Mice were treated with vehicle (NaCl 0.9%; ip, 10 or 20 ml/kg), NaBr (Sigma-Aldrich, Saint-Quentin Fallavier, France) administered either chronically (once a day, 10, 30, 70, 125, 250 and 500 mg/kg; i.p. or per os, in a volume of 20 ml/kg—except for combination with VU0155041: […]) or acutely (250 mg/kg, 20 ml/kg), KBr (Sigma-Aldrich, Saint-Quentin Fallavier, France; 145 mg/kg; i.p., 20 ml/kg), bumetanide (R&D systems, Minneapolis, USA, 0.5 and 2 mg/kg; i.p., 20 ml/kg) or VU0155041 (Cayman Chemicals, Ann Arbor, USA, once a day, i.p., 1 mg/kg, 10 ml/kg). […] When treatment was given chronically, behavioral testing started 8 days after beginning of daily administration. Treatment was maintained for 8 to 18 consecutive days (see timelines in FIGS. 1 and 4), allowing thorough behavioral phenotyping. On testing days, or when treatment was given acutely, drugs (or vehicle) were administered 30 min before behavioral assays.
(§2) Y-maze exploration. Spontaneous alternation behavior was used to assess perseverative behavior (65-67). Each Y-maze consisted of three connected Plexiglas arms (15×15×17 cm) covered with distinct wall patterns (15 lx). Floors were covered with lightly sprayed fresh sawdust to limit anxiety.
(§3) To this purpose, we evaluated the effects of chronic NaBr administration at the dose of 250 mg/kg on autism-sensitive behaviors in these lines (FIG. 3A).

Fmr1^−/− mice [2] = assay: Y-maze exploration; settings: chronic NaBr 250 mg/kg once daily
Description: as §1, §2, §3

Oprm1^−/− mice [3] = assay: Three-chamber social preference test
Description: as §1
Three-chamber social preference test. The test apparatus consisted of a transparent acrylic box (exterior walls blinded with black plastic film); partitions divided the box into three equal chambers (40×20×22.5 cm). Two sliding doors (8×5 cm) allowed transitions between chambers. Cylindrical wire cages (18×9 cm, 0.5 cm diameter-rods spaced 1 cm apart) were used to contain the mouse interactor and object (soft-toy mouse). The test was performed in low-light conditions (15 lx) to minor anxiety. Stimulus wild-type mice were habituated to confinement in wire cages for 2 days before the test (20 min/day). On testing day, the experimental animal was introduced to the middle chamber and allowed to explore the whole apparatus for a 10-min habituation phase (wire cages empty) after the sliding doors were raised. The experimental mouse was then confined back in the middle-chamber while the experimenter introduced an unfamiliar wild type age and sex-matched animal into a wire cage in one of the side-chambers and a soft toy mouse (8×10 cm) in the second wire cage as a control for novelty. Then the experimental mouse was allowed to explore the apparatus for a 10-min interaction phase. The time spent in each chamber, the time spent in nose contact with each wire cage (empty: habituation; containing a mouse or a toy: interaction), as well as the number of these nose contacts were scored a posteriori on video recordings using an ethological keyboard (Labwatcher®, View Point, Lyon, France) by trained experimenters. […] The relative position of stimulus mice (versus toy) was counterbalanced between groups.

Oprm1^−/− mice [4] = assay: Y-maze exploration; settings: chronic NaBr 10-500 mg/kg or bumetanide 0.5 and 2 mg/kg
Description: as §1
Y-maze exploration. Spontaneous alternation behavior was used to assess perseverative behavior (65-67). Each Y-maze consisted of three connected Plexiglas arms (15×15×17 cm) covered with distinct wall patterns (15 lx). Floors were covered with lightly sprayed fresh sawdust to limit anxiety. Each mouse was placed at the center of a maze and allowed to freely explore this environment for 5 min. The pattern of entries into each arm was quoted on video-recordings. Spontaneous alternations (SPA), i.e. successive entries into each arm forming overlapping triplet sets, alternate arm returns (AAR) and same arm returns (SAR) were scored, and the percentage of SPA, AAR and SAR was calculated as following: total/(total arm entries−2)*100.

Shank3^Δex13-16−/− mice [5] = assay: Novelty-suppressed feeding; settings: Shank3Δex13-16−/− mice; chronic NaBr 250 mg/kg once daily
Description: as §1
(§4) Novelty-suppressed feeding. Novelty-suppressed feeding (NSF) was measured in 24-hr food-deprived mice, isolated in a standard housing cage for 30 min before individual testing. Three pellets of ordinary lab chow were placed on a white tissue in the center of each arena, lit at 60 lx. Each mouse was placed in a corner of an arena and allowed to explore for a maximum of 15 min. Latency to feed was measured as the time necessary to bite a food pellet. Immediately after an eating event, the mouse was transferred back to home cage (free from cage-mates) and allowed to feed on lab chow for 5 min. Food consumption in the home cage was measured.
as §3

Fmr1^−/− mice [6] = assay: Novelty-suppressed feeding; settings: chronic NaBr 250 mg/kg once daily
Description: as §1, §4, §3

Shank3^Δex13-16−/− mice [7] = assay: Direct social interaction test; settings: Shank3Δex13-16−/− mice
Description: as §1
(§5) Direct social interaction test. On testing day, a pair of unfamiliar mice (not cage mates, age-, sex- and treatment-matched) was introduced in each arena for 10 min (15 lx). Each arena received a black plastic floor (transparent to infrared). […] The mean duration of nose and paw contacts was calculated from previous data (61-63).
as §3

Fmr1^−/− mice [8] = assay: Direct social interaction test
Description: as §1, §5, §3

[9] = chronic NaBr (since lowest dose, 10 mg/kg) or bumetanide 0.5 and 2 mg/kg
[10] = chronic NaBr 250 mg/kg once daily
[11] = one week after interruption of NaBr 250 mg/kg

SMILES: [Br-].[Na+] [NaBr, sodium bromide]
- perseverative same arm returns (Shank3^Δex13-16−/− mice [1]): suppressed under chronic bromide
- perseverative same arm returns (Fmr1^−/− mice [2]): suppressed under chronic bromide
- frequency of nose contacts with the mouse versus the toy (Oprm1^−/− mice [3]; NaBr 70 mg/kg or VU0155041 1 mg/kg, once daily, chronic): sufficient to restore more frequent nose contacts with the mouse versus the toy
- duration of nose contacts with the mouse versus the toy (Oprm1^−/− mice [3]; NaBr 70 mg/kg, VU0155041 1 mg/kg, alone or combined, once daily, chronic): fully restored longer nose contacts with the mouse
- social preference (Oprm1^−/− mice [3]; chronic NaBr 10-500 mg/kg once daily): completely restored social preference in mutant mice
- social preference ratio (Oprm1^−/− mice [3]; chronic NaBr 10-500 mg/kg or bumetanide 0.5 and 2 mg/kg): normalization of their preference ratio from 10 mg/kg NaBr and over
- duration of nose contacts with the mouse versus the toy (Oprm1^−/− mice [3]; [9]): longer
- number of nose contacts with the mouse versus the toy (Oprm1^−/− mice [3]; [9]): more frequent
- perseverative same arm returns (Oprm1^−/− mice [4]): suppressed perseverative same arm returns from the dose of 70 mg/kg
- perseverative same arm returns (Oprm1^−/− mice [4]; listed as bromide): decreased the number of perseverative same arm returns in Oprm1 null mice to wild-type levels since the dose of 30 mg/kg
- food intake (Shank3^Δex13-16−/− mice [5]): had no effect on food intake
- latency to eat (Shank3^Δex13-16−/− mice [5]): normalized this latency to WT levels
- food intake (Fmr1^−/− mice [6]): no modification in their food intake
- latency to eat (Fmr1^−/− mice [6]): reduced this latency
- duration of nose contacts (Shank3^Δex13-16−/− mice [7]; [10]): restored the duration of nose
- duration of paw contacts (Shank3^Δex13-16−/− mice [7]; [10]): restored
- grooming after social contact (Shank3^Δex13-16−/− mice [7]; [10]): suppressed grooming after social contact
- number of following episodes (Shank3^Δex13-16−/− mice [7]; [10]): normalized the number of following episodes
- duration of paw contacts (Shank3^Δex13-16−/− mice [7]; [11]): no effect of previous bromide treatment was longer detected
- grooming after social contact (Shank3^Δex13-16−/− mice [7]; [11]): remained efficiently suppressed
- duration of nose contacts (Fmr1^−/− mice [8]; [10]): restored the duration of nose
- duration of paw contacts (Fmr1^−/− mice [8]; [10]): restored
- grooming after social contact (Fmr1^−/− mice [8]; [10]): suppressed grooming after social contact
- number of following episodes (Fmr1^−/− mice [8]; [10]): normalized the number of following episodes
- duration of paw contacts (Fmr1^−/− mice [8]; [11]): significant beneficial effects were still detected
- number of grooming episodes after a social contact (Fmr1^−/− mice [8]; [11]): significant beneficial effects were still detected
